# Test results reported in patent US20150209379A1, “TREATMENT OF PROSTATE CANCER AND HEMATOLOGIC NEOPLASMS” (THOMAS JEFFERSON UNIVERSITY, priority 2012, published 2015).
# What was measured:
# [1] = biological target: T1, Stat5a (Homo sapiens, UniProt P42229); experiment: Stat5a transcriptional activity, beta-casein promoter luciferase reporter gene assay in PC-3 cells; format: cell-based; parameters: expressed in transfected cells; host or cells: PC-3 human prostate cancer cells; conditions: 1 hour pretreatment, then 10 nM hPrl 16 hours
# T1 sequence (P42229 1-794): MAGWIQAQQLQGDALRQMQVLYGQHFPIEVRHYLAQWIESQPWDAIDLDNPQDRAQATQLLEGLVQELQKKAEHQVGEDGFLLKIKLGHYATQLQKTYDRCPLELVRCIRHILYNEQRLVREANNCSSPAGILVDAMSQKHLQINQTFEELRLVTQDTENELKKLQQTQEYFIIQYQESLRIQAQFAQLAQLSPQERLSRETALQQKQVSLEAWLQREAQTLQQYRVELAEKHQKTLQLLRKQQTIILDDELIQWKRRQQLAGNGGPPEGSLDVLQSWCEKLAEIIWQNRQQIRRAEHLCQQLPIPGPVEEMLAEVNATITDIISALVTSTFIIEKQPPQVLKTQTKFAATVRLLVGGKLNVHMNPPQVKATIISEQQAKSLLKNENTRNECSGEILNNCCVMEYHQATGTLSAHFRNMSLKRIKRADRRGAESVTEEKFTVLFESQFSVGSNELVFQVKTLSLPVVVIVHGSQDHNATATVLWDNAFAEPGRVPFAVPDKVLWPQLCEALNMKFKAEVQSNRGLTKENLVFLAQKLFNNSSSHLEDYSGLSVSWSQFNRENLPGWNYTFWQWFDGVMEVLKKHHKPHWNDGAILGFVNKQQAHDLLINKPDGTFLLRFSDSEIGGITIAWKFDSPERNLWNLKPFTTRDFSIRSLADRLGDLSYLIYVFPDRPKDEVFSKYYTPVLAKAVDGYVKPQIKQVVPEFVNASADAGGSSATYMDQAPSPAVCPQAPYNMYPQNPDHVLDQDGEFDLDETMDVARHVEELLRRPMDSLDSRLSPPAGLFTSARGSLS
# Protocol: Cells of the human prostate cell line PC-3 were plated into 96-well plate at the density of 2×10^5 per well. After 24 hours of plating, cells were transiently co-transfected using FuGENE6 (Roche) with 0.25 μg of each of pStat5a, pPrlR (prolactin receptor) plasmids, 0.5 μg of pBeta-casein-luc and 0.025 μg of pRL-TK (Renilla luciferase) plasmids as an internal control. After another 24 hours of transfection, the cells were starved in serum-free medium for 8 hours, pretreated with (2R,3R,4S,5R)-2-(6-(3,4-dihydroisoquinolin-2(1H)-yl)-9H-purin-9-yl)-5-(hydroxymethyl)tetrahydrofuran-3,4-diol (Compound 1) or (2R,3S,4R,5R)-2-(hydroxymethyl)-5-(6-(2-phenylhydrazinyl)-9H-purin-9-yl)tetrahydrofuran-3,4-diol (Compound 2), for 1 hour, and then stimulated with 10 nM human prolactin (hPrl) in the serum-free medium for additional 16 hours. The lysates were assayed for firefly and Renilla luciferase activities using the Dual-Luciferase reporter assay system (Promega). The firefly luciferase activity was normalized to the Renilla luciferase activity of the same sample, and the mean was calculated from the parallels. From the mean values of each independent run, the overall mean and its standard deviation (S.D.) were calculated.
# (§1) Cells of the human prostate cell line PC-3 were plated into 96-well plate at the density of 2×10^5 per well. […] The firefly luciferase activity was normalized to the Renilla luciferase activity of the same sample, and the mean was calculated from the parallels. From the mean values of each independent run, the overall mean and its standard deviation (S.D.) were calculated.
# as §1
# [2] = biological target: T2, Stat5b (Homo sapiens, UniProt P51692); experiment: Stat5b transcriptional activity, beta-casein promoter luciferase reporter gene assay in PC-3 cells; format: cell-based; conditions: varying concentration
# T2 construct: expressed in transfected cells; host or cells: PC-3 human prostate cancer cells
# T2 sequence (P51692 1-787): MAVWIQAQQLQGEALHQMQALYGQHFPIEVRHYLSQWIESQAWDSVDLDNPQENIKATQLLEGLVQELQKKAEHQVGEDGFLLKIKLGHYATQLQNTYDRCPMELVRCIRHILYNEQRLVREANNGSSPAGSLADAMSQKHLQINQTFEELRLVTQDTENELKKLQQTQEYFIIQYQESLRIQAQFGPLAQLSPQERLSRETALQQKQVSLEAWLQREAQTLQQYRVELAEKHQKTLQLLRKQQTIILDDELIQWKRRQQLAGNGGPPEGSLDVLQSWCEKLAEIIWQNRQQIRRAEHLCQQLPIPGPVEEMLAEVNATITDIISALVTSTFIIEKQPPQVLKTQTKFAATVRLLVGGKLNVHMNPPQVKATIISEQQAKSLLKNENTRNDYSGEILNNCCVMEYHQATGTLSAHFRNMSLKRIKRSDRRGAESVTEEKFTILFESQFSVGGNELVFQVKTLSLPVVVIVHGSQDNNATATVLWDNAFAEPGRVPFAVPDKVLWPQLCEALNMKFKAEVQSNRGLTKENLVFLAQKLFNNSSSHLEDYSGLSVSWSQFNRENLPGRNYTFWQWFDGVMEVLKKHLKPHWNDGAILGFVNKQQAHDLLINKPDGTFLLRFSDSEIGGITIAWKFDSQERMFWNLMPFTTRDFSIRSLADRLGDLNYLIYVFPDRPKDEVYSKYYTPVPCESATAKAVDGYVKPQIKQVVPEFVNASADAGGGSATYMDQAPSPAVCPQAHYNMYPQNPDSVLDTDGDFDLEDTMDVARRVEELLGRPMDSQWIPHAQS
# Protocol: Cells of the human prostate cell line PC-3 were plated into 96-well plate at the density of 2×10^5 per well. After 24 hours of plating, cells were transiently co-transfected using FuGENE6 (Roche) with 0.25 μg of each of pStat5a or pStat5b, pPrlR (prolactin receptor) plasmids, 0.5 μg of pBeta-casein-luc and 0.025 μg of pRL-TK (Renilla luciferase) plasmids as an internal control. After another 24 hours of transfection, the cells were starved in serum-free medium for 8 hours, pretreated with N^6-benzyladenosine (“N6BA”), or the control compound C5, for 1 hour, and then stimulated with 10 nM human prolactin (hPrl) in the serum-free medium for additional 16 hours. The lysates were assayed for firefly and Renilla luciferase activities using the Dual-Luciferase reporter assay system (Promega). Three independent experiments were carried out in triplicate. The firefly luciferase activity was normalized to the Renilla luciferase activity of the same sample, and the mean was calculated from the parallels. From the mean values of each independent run, the overall mean and its standard deviation (S.D.) were calculated.
Structure (SMILES),effect on transcriptional activity of Stat5a [1],effect on transcriptional activity of Stat5b [2]
"OC[C@H]1O[C@@H](n2cnc3c(NCc4ccccc4)ncnc32)[C@H](O)[C@@H]1O [Compound N6BA, N^6-benzyladenosine]",inhibits transcriptional activity of Stat5,inhibited Stat5 transcriptional activity in a concentration-dependent manner
"OC[C@H]1O[C@@H](n2cnc3c(N4CCc5ccccc5C4)ncnc32)[C@H](O)[C@@H]1O [Compound 1, (2R,3R,4S,5R)-2-(6-(3,4-Dihydroisoquinolin-2(1H)-yl)-9H-purin-9-yl)-5-(hydroxymethyl)tetrahydrofuran-3,4-diol]",effectively block the transcriptional activity of Stat5a,inhibited Stat5a and Stat5b transcriptional activity in a concentration-dependent manner
"OC[C@H]1O[C@@H](n2cnc3c(NNc4ccccc4)ncnc32)[C@H](O)[C@@H]1O [Compound 2, (2R,3S,4R,5R)-2-(hydroxymethyl)-5-(6-(2-phenylhydrazinyl)-9H-purin-9-yl)tetrahydrofuran-3,4-diol]",effectively block the transcriptional activity of Stat5a,inhibited Stat5a and Stat5b transcriptional activity in a concentration-dependent manner
